# Test results as given in patent US20050089583A1, “Novel herbal composition for the treatment of gastric ulcer” (priority 2003, published 2005).
# Columns and labels:
# [1] = test system: Cold Restraint Ulcers (CRU); test: Cold restraint ulcer (CRU) model; assay type: in vivo, rats
# Method: Method: Adult rats of either sex, weighing 150-175 Gms were fasted for 24 hours with free access to water. The test drugs were administered 45 minutes before immobilizing the animals. The rats were immobilized in the restraint cage at 4° C. in BOD incubator for 2 hrs and were sacrificed immediately after the restraint period. (According to the method of Senay and Levine 1967). The abdomen was cut opened; stomach was taken out and incised along the greater curvature to observe the gastric lesions with the help of Magnascope (5× magnification).
# (§1) The following arbitrary scoring system was used to grade the severity and intensity of the lesions. • 1. Shedding of epithelium=10 • 2. Petechial and frank hemorrhages=20 • 3. One or two ulcers=30 • 4. More than two ulcers=40 • 5. Perforated ulcers=50 The presence of any of these lesions was considered as a positive ulcerogenic response which has been shown as percentage of rats showing gastric lesions.
# (§2) The severity of ulcers is expressed in terms of ulcer index, which is the mean score of gastric lesions of all the rats in a group which is defined as: • Ulcer Index (U. I.)=Us+Up×10^−1 • Where Us=Mean severity of ulcer score and Up-Percentage of animals with Ulcer incidences.
# (§3) The percentage protection is calculated as follows: • Percentage protection ═(C-T/C)×100. • Wherein • C=Number of animals showing ulcer response in control group and • T=Number of animals showing ulcer response in test group.
# [2] = test system: aspirin induced gastric ulcer; test: Aspirin induced gastric ulcer model; assay type: in vivo, rats
# Description: as §1, §2, §3
# Method: Gastric ulceration was induced by aspirin according to the method of Djahanguiri (1969). Aspirin (150 mg/Kg.) was administered per orally as a suspension in gum-acacia and the animal was sacrificed 5 hr. after the aspirin treatment and the ulcer index with protection index were calculated.
# Histamine induced ulcer = Histamine induced ulcer model; assay type: in vivo, guinea pig; conditions: HF2 50 mg/Kg p.o., Omeprazole 10 mg/kg p.o.
# Method: Method: Animals were fasted for 24 hours with access to water. The drug was given orally 1 hour prior to the histamine administration. Histamine was administered in a dose of 0.25 mg/Kg, i.m. at 30 minutes interval-for 7 times and it induced 100% duodenal ulceration in guinea pig (According to the method of Watt and Eagleton 1964)^4. The animals were sacrificed after half an hour of last injection under ether anesthesia. The stomach along with duodenum was removed washed thoroughly and examined for the lesions and ulcer index with protection index was calculated. The effect of the herbal composition “HF2” and the standard drug “Omeprazole” against Histamine induced ulcer model is given in Table 4.
# [3] = HF 2 100 mg/Kg p.o., Omeprazole 10 mg/Kg p.o.
smiles,measurement,setting,value
COc1ccc2[nH]c([S+]([O-])Cc3ncc(C)c(OC)c3C)nc2c1 (stereo not shown) [Omeprazole],protection against cold restraint ulcer model,[1],54.03%
same,Percentage of ulcer incidence,"[1]; HF2 50 mg/Kg p.o., Omeprazole 10 mg/Kg p.o.",50%
same,Ulcer severity (type of lesions) score 10 (No. of rats showing lesions/No. of rats tested),"[1]; score 10 = shedding of epithelium, HF2 50 mg/Kg p.o., Omeprazole 10 mg/Kg p.o., 4° C., 2 hrs restraint",3/10
same,Ulcer severity (type of lesions) score 20 (No. of rats showing lesions/No. of rats tested),"[1]; score 20 = petechial and frank hemorrhages, HF2 50 mg/Kg p.o., Omeprazole 10 mg/Kg p.o.",2/10
same,protection against aspirin induced ulcer model,[2],39.41%
same,Ulcer severity (type of lesions) score 20 (No. of rats showing lesions/No. of rats tested),"[2]; Aspirin 150 mg/Kg p.o., HF 2 100 mg/Kg p.o., Omeprazole 10 mg/Kg p.o.",2/6
same,Ulcer severity (type of lesions) score 10 (No. of rats showing lesions/No. of rats tested),"[2]; Aspirin 150 mg/Kg p.o., HF 2 100 mg/Kg p.o., Omeprazole 10 mg/Kg p.o., 5 hr",2/6
same,Mean severity of ulcer score,[2]; [3],10.0
same,Percentage of ulcer incidence,[2]; [3],66.7%
same,Protection index,[2]; [3],39.41
same,Ulcer index,[2]; [3],7.67
same,Percentage of ulcer incidence,Histamine induced ulcer,33.3%
same,Ulcer severity (type of lesions) score 20 (No. Guinea pig showing lesions/No. of Guinea pig tested),Histamine induced ulcer; Histamine 0.25 mg/Kg i.m. × 7,1/3
